Measurements: US20240124503A1, “HETEROAROMATIC PHOSPHONIUM SALTS AND THEIR USE TREATING CANCER” (FLORATEK PHARMA S.A., priority 2021, published 2024)

Legend:
Assay type in all cases: cell-based
H69AR = assay: Cell viability assay, H69AR; settings: SCLC doxorubicin resistant cell line H69AR
Description: (§1) Antitumor activity of the compounds and doxorubicin as a positive control was assessed by using the CellTiter-Blue Cell Viability Assay (Promega, #G8082) or CellTiter-Glow® Luminescent Cell Viability assay (Promega #G7572) according to the manufacturer's instructions. The compounds were tested at 5 or 6 concentrations in half-log increments (highest concentration 30 μM or 100 μM) in duplicate or triplicate well conditions.
(§2) Tumor cells were grown at 37° C. in a humidified atmosphere with 5% CO2 in RPMI 1640 or DMEM medium, supplemented with 10% (v/v) fetal calf serum and 50 μg/ml gentamicin for up to 20 passages, and were passaged once or twice weekly. Cells were harvested using TrypLE or PBS buffer containing 1 mM EDTA, and the percentage of viable cells was determined using a CASY Model TI cell counter (OMNI Life Science). Cells were harvested from exponential phase cultures, counted and plated in 96 well flat-bottom microtiter plates at a cell density depending on the cell line's growth rate (4,000-20,000 cells/well depending on the cell line's growth rate, up to 60,000 for hematological cancer cell lines) in RPMI 1640 or DMEM medium supplemented with 10% (v/v) fetal calf serum and 50 μg/ml gentamicin (140 μl/well). […] Viability of cells was quantified by the CellTiter-Blue® cell viability assay (Promega G8081) or CellTiter-Glow® Luminescent Cell Viability assay (Promega #G7572). […]

U-251 = assay: Cell viability assay, U-251; settings: Homo sapiens; brain carcinoma cell line U-251
Description: as §1, §2

SH-SY-5Y = assay: Cell viability assay, SH-SY-5Y; settings: Homo sapiens, SH-SY5Y; brain carcinoma cell line SH-SY-5Y
Description: as §1, §2

CHP-134 = assay: Cell viability assay, CHP-134; settings: Homo sapiens; brain carcinoma cell line CHP-134
Description: as §1, §2

U-118 = assay: Cell viability assay, U-118; settings: brain carcinoma cell line U-118
Description: as §1, §2

MDA-MB-436 = assay: Cell viability assay, MDA-MB-436; settings: Homo sapiens; breast carcinoma cell line MDA-MB-436
Description: as §1, §2

HCC1806 = assay: Cell viability assay, HCC1806; settings: Homo sapiens; breast carcinoma cell line HCC1806
Description: as §1, §2

ZR-75-1 = assay: Cell viability assay, ZR-75-1; settings: Homo sapiens; breast carcinoma cell line ZR-75-1
Description: as §1, §2

T47D = assay: Cell viability assay, T47D; settings: Homo sapiens; breast carcinoma cell line T47D
Description: as §1, §2

NCI-H460 = assay: Cell viability assay, NCI-H460; settings: Homo sapiens; lung carcinoma cell line NCI-H460
Description: as §1, §2

A549 = assay: Cell viability assay, A549; settings: Homo sapiens; lung carcinoma cell line A549
Description: as §1, §2

parental H69 cells = assay: Cell viability assay, parental H69 cells; settings: Homo sapiens, NCI-H69; parental H69 cells (SCLC)
Description: as §1, §2

colon cancer cell = assay: Cell viability, colon cancer cells (panel statement); settings: summary of Table 6; read-out: IC50, colon cancer cell growth
Description: as §1, §2

lung carcinoma cell = assay: Cell viability, lung carcinoma cells (panel statement); settings: summary of Table 13; read-out: IC50, lung carcinoma cell growth
Description: as §1, §2

pancreatic cancer cell = assay: Cell viability, pancreatic cancer cells (panel statement); settings: text summary of Tables 18A and 18B, read-out: IC50, pancreatic cancer cell growth
Description: as §1, §2

prostate cancer cell = assay: Cell viability, prostate cancer cells (panel statement); settings: summary of Table 20; read-out: IC50, prostate cancer cell growth
Description: as §1, §2

stomach PDX = assay: Cell viability, stomach PDX (panel statement); settings: text summary of Table 22; read-out: IC50, stomach PDX growth
Description: PDX-derived cell cultures were obtained from tumors explanted from mice and isolated by mechanical and enzymatic dissociation. […] Cells were harvested and seeded in 96-wells plates at a density of 1.25 to 5×10^3 cells/well for cytotoxicity assays. Cells were incubated 48 h at 37° C. prior to addition of test molecules and vehicle (DMSO, 0.1%) at desired final concentrations. Cell viability was assessed before drugs' addition (To) and 5 days after test molecules addition by measuring ATP cell content using CellTiter-Glo® Luminescent Cell Viability Assay (Promega) according to the manufacturer's instructions. Luciferase activity was measured on a luminometer (PerkinElmer® EnVision™). Each concentration of compounds was tested in triplicate.
Viability was calculated as a percentage of ATP value compared to vehicle treated controls.
For PDX primary cell cultures, the tumour tissue was washed with PBS containing antibiotic-antimycotic and non-tumour tissue and necrotic tumour tissues were separated. The tumour tissue was transferred to a new dish and cut into 1˜2 mm^3 fragments, resuspended in RPMI-1640 medium and centrifuged at 1,200 rpm for 6 min at room temperature. The pelleted material was resuspended with 15 mL of Tumour Cell Digestion Solution and incubated at 37° C. for 1 hour with agitation. […]

With O=c1cc(-c2ccc(CCC[P+](c3ccccc3)(c3ccccc3)c3ccccc3)cc2)oc2c(O)c(O)ccc12 [SND200, (3-(4-(7,8-Dihydroxy-4-oxo-4H1-chromen-2-yl)phenyl)propyl)triphenylphosphonium bromide] as the compound, how does the IC50 (H69AR) read?
The IC50 was 4 to 25 µM.

What does the source list for COc1c(O)ccc2c(=O)c(O)c(-c3ccc(CCCC[P+](c4ccccc4)(c4ccccc4)c4ccccc4)cc3)oc12 [SND190, (4-(4-(3,7-Dihydroxy-8-methoxy-4-oxo-4H1-chromen-2-yl)phenyl)butyl)triphenylphosphonium bromide]?
IC50 (U-251): 7.54 µM; IC50 (SH-SY-5Y): 2.6 µM; IC50 (CHP-134): 1.1 µM; IC50 (U-118): 9.4 µM; IC50 (MDA-MB-436): 2.9 µM; IC50 (HCC1806): 2.8 µM; IC50 (ZR-75-1): 3.5 µM; IC50 (T47D): 1.3 µM; IC50 (NCI-H460): 8.63 µM; IC50 (A549): 13.8 µM; IC50 (parental H69 cells): 1.42 µM; IC50 (colon cancer cell): < 20 µM; IC50 (lung carcinoma cell): < 20 µM; IC50 (pancreatic cancer cell): < 20 µM; IC50 (prostate cancer cell): < 10 µM; IC50 (stomach PDX): < 20 µM
